Source: ChEMBL document CHEMBL5257106, “Design, synthesis, and biological evaluation of novel HDAC inhibitors with a 3-(benzazol-2-yl)quinoxaline framework” (Bioorg Med Chem Lett, 2023)
Activity calls are given as the source filed them. The calls are words filed in the database; no cut-off is given here.

What was measured:
[1] = test system: HCT-116; assay: Induction of cell cycle arrest in human HCT-116 assessed as decrease in G0/G1 phase cells at 0.5 uM incubated for 48 hrs by flow cytometric analysis (reference value: 63.51%); type: functional; parameters: scale not given: the % may be the effect or the level left
[2] = test system: MCF7; assay: Antiproliferative activity against human MCF7 cells assessed as inhibition of cell growth by MTT assay; type: functional, cell-based
[3] = test system: HCT-116; assay: Induction of cell cycle arrest in human HCT-116 assessed as decrease in G0/G1 phase cells at 1 uM incubated for 48 hrs by flow cytometric analysis (reference value: 63.51%); type: functional; parameters: scale not given: the % may be the effect or the level left
[4] = test system: HL-60; assay: Potency index, ratio of SAHA IC50 to test compound IC50 for antiproliferative activity against human HL-60 cells assessed as inhibition of cell growth by MTT assay; type: functional
[5] = test system: HCT-116; assay: Potency index, ratio of SAHA IC50 to test compound IC50 for antiproliferative activity against human HCT-116 cells assessed as inhibition of cell growth by MTT assay; type: functional
[6] = biological target: Histone deacetylase (Homo sapiens) (UniProt Q13547+O15379+Q9UBN7+Q92769+Q9UQL6+Q8WUI4+Q9BY41+Q96DB2+P56524+Q9UKV0+Q969S8); assay: Inhibition of HDAC in human HCT-116 cells assessed as increase in histone H3 acetylation incubated for 24 hrs by Western blot analysis; type: cell-based; conditions: dose 0.5-1 µM
[7] = biological target: Histone deacetylase 3 (Homo sapiens, UniProt O15379); assay: Inhibition of HDAC3 (unknown origin)
[8] = test system: HCT-116; assay: Induction of ROS production in human HCT-116 cells by flow cytometric analysis; type: functional, cell-based; conditions: dose 0.5-1 µM
[9] = test system: HCT-116; assay: Induction of apoptosis in human HCT-116 cells assessed as increase in Bax protein expression at 0.5 to 1 uM incubated for 24 hrs by Western blot analysis; type: functional, cell-based; conditions: dose 0.5-1 µM
[10] = test system: HCT-116; assay: Induction of apoptosis in human HCT-116 cells assessed as late apoptotic cells at 0.5 uM incubated for 24 hrs by Annexin V-FITC/PI staining based flow cytometry analysis (reference value: 0.323%); type: functional
[11] = test system: HCT-116; assay: Induction of apoptosis in human HCT-116 cells assessed as upregulation of cleaved PARP expression at 0.5 to 1 uM incubated for 24 hrs by Western blot analysis; type: functional, cell-based; conditions: dose 0.5-1 µM
[12] = test system: A2780; assay: Antiproliferative activity against human A2780 cells assessed as inhibition of cell growth by MTT assay; type: functional, cell-based
[13] = biological target: Histone deacetylase 2 (Homo sapiens, UniProt Q92769); assay: Inhibition of HDAC2 (unknown origin)
[14] = test system: HCT-116; assay: Induction of cell cycle arrest in human HCT-116 assessed as increase in G2/M phase cells at 0.5 uM incubated for 48 hrs by flow cytometric analysis (reference value: 23.70%); type: functional
[15] = biological target: T1, Protein deacetylase HDAC6 (Homo sapiens, UniProt Q9UBN7); assay: Inhibition of HDAC6 (unknown origin)
T1 sequence (Q9UBN7 whole entry): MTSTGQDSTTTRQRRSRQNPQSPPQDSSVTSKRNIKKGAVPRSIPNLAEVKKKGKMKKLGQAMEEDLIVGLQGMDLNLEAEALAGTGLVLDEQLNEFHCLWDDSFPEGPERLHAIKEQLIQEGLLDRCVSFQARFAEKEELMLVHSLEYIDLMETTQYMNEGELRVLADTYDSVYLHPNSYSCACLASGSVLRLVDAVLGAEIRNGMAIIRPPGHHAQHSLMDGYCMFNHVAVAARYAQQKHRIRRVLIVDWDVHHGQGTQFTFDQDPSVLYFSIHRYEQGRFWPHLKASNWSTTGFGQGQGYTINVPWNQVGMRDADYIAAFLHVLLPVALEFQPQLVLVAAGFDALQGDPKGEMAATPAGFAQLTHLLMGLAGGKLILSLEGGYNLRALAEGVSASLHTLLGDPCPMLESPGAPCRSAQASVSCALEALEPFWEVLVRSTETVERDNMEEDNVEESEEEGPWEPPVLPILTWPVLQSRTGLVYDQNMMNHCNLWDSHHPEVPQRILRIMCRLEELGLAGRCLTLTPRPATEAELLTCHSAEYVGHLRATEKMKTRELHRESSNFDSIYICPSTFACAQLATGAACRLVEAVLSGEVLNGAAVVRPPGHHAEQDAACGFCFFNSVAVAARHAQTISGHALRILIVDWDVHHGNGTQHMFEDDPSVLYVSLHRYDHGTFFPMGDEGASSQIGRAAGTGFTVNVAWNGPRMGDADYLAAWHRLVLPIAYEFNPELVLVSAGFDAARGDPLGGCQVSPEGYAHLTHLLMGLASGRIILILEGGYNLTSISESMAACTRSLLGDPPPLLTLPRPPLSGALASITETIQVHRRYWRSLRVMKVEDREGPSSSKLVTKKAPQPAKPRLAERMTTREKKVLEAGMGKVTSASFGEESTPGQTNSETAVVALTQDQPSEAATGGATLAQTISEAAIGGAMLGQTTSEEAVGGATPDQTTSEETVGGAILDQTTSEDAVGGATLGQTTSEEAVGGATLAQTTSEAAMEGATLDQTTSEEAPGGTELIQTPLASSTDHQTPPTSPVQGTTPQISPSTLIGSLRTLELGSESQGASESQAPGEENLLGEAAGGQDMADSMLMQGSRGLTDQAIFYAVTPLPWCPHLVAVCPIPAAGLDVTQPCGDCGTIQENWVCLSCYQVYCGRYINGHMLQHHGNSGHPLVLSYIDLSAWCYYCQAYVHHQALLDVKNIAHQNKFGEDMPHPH

[16] = test system: HCT-116; assay: Induction of cell cycle arrest in human HCT-116 assessed as S phase cells at 1 uM incubated for 48 hrs by flow cytometric analysis (reference value: 12.79%); type: functional
[17] = test system: RS4-11; assay: Potency index, ratio of SAHA IC50 to test compound IC50 for antiproliferative activity against human RS4-11 cells assessed as inhibition of cell growth by MTT assay; type: functional
[18] = test system: HCT-116; assay: Induction of cell cycle arrest in human HCT-116 assessed as S phase cells at 0.5 uM incubated for 48 hrs by flow cytometric analysis (reference value: 12.79%); type: functional
[19] = test system: HCT-116; assay: Induction of apoptosis in human HCT-116 cells assessed as decrease in Bcl-2 protein expression incubated for 24 hrs by Western blot analysis; type: functional, cell-based; conditions: dose 0.5-1 µM

Histone deacetylase 2, sequence (Q92769 whole entry): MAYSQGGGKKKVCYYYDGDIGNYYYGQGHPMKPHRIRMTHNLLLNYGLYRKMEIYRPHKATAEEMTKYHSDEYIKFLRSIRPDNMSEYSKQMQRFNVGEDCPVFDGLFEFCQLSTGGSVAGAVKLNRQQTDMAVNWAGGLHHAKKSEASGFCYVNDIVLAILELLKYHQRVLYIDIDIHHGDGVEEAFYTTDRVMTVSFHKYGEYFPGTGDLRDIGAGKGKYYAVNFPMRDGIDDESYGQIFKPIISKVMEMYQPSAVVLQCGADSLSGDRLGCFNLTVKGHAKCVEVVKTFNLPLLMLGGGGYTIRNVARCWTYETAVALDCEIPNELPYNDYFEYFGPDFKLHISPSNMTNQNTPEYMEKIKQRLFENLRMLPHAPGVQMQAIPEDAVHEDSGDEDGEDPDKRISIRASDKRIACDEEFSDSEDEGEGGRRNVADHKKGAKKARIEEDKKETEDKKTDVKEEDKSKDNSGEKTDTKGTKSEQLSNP
Histone deacetylase 3, sequence (O15379 whole entry): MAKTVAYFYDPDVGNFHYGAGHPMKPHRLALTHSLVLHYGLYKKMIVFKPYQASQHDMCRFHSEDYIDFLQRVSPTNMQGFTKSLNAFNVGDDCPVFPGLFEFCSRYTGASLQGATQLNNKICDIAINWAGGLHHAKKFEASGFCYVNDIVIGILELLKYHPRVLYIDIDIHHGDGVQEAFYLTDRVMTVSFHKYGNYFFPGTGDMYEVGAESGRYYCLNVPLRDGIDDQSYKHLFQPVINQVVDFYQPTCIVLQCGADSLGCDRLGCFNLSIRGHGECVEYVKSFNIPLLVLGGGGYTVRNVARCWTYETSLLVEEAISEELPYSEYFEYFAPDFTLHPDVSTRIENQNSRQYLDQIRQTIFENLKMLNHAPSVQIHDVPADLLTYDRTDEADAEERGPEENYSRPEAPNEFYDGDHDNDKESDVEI

## O=C(CCCCCCNc1nc2ccccc2nc1-c1nc2ccccc2o1)NO
[1]
  Activity: 51.68%
[2]
  IC50: 1270 nM
[3]
  Activity: 46.57%
[4]
  Ratio IC50: 2
[5]
  Ratio IC50: 6
[6]
  inhibition: Dose-Dependent Effect
[7]
  IC50: 15.5 nM
[8]
  Activity: Dose-Dependent Effect
[9]
  Activity: Active
[10]
  Activity: 7.21%
[11]
  Activity: Active
[12]
  IC50: 1760 nM
[13]
  IC50: 34.4 nM
[14]
  Activity: 36.67%
[15]
  IC50: 44.7 nM
[16]
  Activity: 13.79%
[17]
  Ratio IC50: 2
[18]
  Activity: 11.65%
[19]
  Activity: Dose-Dependent Effect
